In PubChem BioAssay (NCI):
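How tested: cells in 96-well plates exposed to compound for 48 hours at five concentrations. Here, GI50 denotes the concentration required for 50% inhibition of growth. Definition used: TGI = concentration required for complete inhibition of growth.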

How the values were obtained:
Assay in all cases: NCI anticancer screen, dose series, 48 h
786-0 renal = system: 786-0 renal
A498 renal = system: A498 renal
A549 NSCLC = system: A549 NSCLC
ACHN renal = system: ACHN renal
BT-549 breast = system: BT-549 breast
CAKI-1 renal = system: CAKI-1 renal
CCRF-CEM leukemia = system: CCRF-CEM leukemia
COLO 205 colon = system: COLO 205 colon
DU-145 prostate = system: DU-145 prostate
EKVX NSCLC = system: EKVX NSCLC
HCC-2998 colon = system: HCC-2998 colon
HCT-116 colon = system: HCT-116 colon
HCT-15 colon = system: HCT-15 colon
HL-60(TB) leukemia = system: HL-60(TB) leukemia
HOP-62 NSCLC = system: HOP-62 NSCLC
HOP-92 NSCLC = system: HOP-92 NSCLC
HS 578T breast = system: HS 578T breast
HT29 colon = system: HT29 colon
IGROV1 ovarian = system: IGROV1 ovarian
K-562 leukemia = system: K-562 leukemia
KM12 colon = system: KM12 colon
LOX IMVI melanoma = system: LOX IMVI melanoma
M14 melanoma = system: M14 melanoma
MALME-3M melanoma = system: MALME-3M melanoma
MCF7 breast = system: MCF7 breast
MDA-MB-231 breast = system: MDA-MB-231 breast
MDA-MB-435 = system: MDA-MB-435
MDA-MB-468 breast = system: MDA-MB-468 breast
MOLT-4 leukemia = system: MOLT-4 leukemia
NCI-H226 lung = system: NCI-H226 lung
NCI-H23 lung = system: NCI-H23 lung
NCI-H460 lung = system: NCI-H460 lung
NCI-H522 lung = system: NCI-H522 lung
NCI/ADR-RES ovarian = system: NCI/ADR-RES ovarian
OVCAR-3 ovarian = system: OVCAR-3 ovarian
OVCAR-4 ovarian = system: OVCAR-4 ovarian
OVCAR-5 ovarian = system: OVCAR-5 ovarian
OVCAR-8 ovarian = system: OVCAR-8 ovarian
PC-3 prostate = system: PC-3 prostate
RPMI-8226 leukemia = system: RPMI-8226 leukemia
RXF 393 renal = system: RXF 393 renal
SF-268 CNS = system: SF-268 CNS
SF-295 CNS = system: SF-295 CNS
SF-539 CNS = system: SF-539 CNS
SK-MEL-2 melanoma = system: SK-MEL-2 melanoma
SK-MEL-28 melanoma = system: SK-MEL-28 melanoma
SK-MEL-5 melanoma = system: SK-MEL-5 melanoma
SK-OV-3 ovarian = system: SK-OV-3 ovarian
SN12C renal = system: SN12C renal
SNB-19 CNS = system: SNB-19 CNS
SNB-75 CNS = system: SNB-75 CNS
SW-620 colon = system: SW-620 colon
T-47D breast = system: T-47D breast
TK-10 renal = system: TK-10 renal
U251 CNS = system: U251 CNS
UACC-257 melanoma = system: UACC-257 melanoma
UACC-62 melanoma = system: UACC-62 melanoma
UO-31 renal = system: UO-31 renal

## CN(C)c1nc(NCCNS(=O)(=O)c2ccc(C(=O)/C=C/c3ccc(C(F)(F)F)cc3)cc2)nc(Nc2ccc(F)cc2)n1
786-0 renal
  GI50: 10.6 µM
  TGI: 22.7 µM
A498 renal
  GI50: 13 µM
  TGI: 26.2 µM
A549 NSCLC
  GI50: 10 µM
  TGI: 25.4 µM
ACHN renal
  GI50: 5.08 µM
  TGI: 17.4 µM
BT-549 breast
  GI50: 12.7 µM
  TGI: 25.6 µM
CAKI-1 renal
  GI50: 6.46 µM
  TGI: 19.7 µM
CCRF-CEM leukemia
  GI50: 3.79 µM
  TGI: > 100 µM
COLO 205 colon
  GI50: 11.2 µM
  TGI: 24.8 µM
DU-145 prostate
  GI50: 11.2 µM
  TGI: 24 µM
EKVX NSCLC
  GI50: 4.2 µM
  TGI: 15.7 µM
HCC-2998 colon
  GI50: 1.77 µM
  TGI: 3.61 µM
HCT-116 colon
  GI50: 1.68 µM
  TGI: 3.13 µM
HCT-15 colon
  GI50: 3.22 µM
  TGI: 11.9 µM
HL-60(TB) leukemia
  GI50: 3.82 µM
  TGI: 30 µM
HOP-62 NSCLC
  GI50: 13.6 µM
  TGI: 27.7 µM
HOP-92 NSCLC
  GI50: 6.15 µM
  TGI: 20.7 µM
HS 578T breast
  GI50: 12.7 µM
  TGI: 49.5 µM
HT29 colon
  GI50: 1.91 µM
  TGI: 3.95 µM
IGROV1 ovarian
  GI50: 12.3 µM
  TGI: 24.9 µM
K-562 leukemia
  GI50: 2.98 µM
  TGI: 30.4 µM
KM12 colon
  GI50: 2.38 µM
  TGI: 6 µM
LOX IMVI melanoma
  GI50: 1.86 µM
  TGI: 3.84 µM
M14 melanoma
  GI50: 3.39 µM
  TGI: 12.9 µM
MALME-3M melanoma
  GI50: 14.2 µM
  TGI: 27.5 µM
MCF7 breast
  GI50: 1.7 µM
  TGI: 3.56 µM
MDA-MB-231 breast
  GI50: 8.38 µM
  TGI: 20.8 µM
MDA-MB-435
  GI50: 2.86 µM
  TGI: 8.49 µM
MDA-MB-468 breast
  GI50: 4.53 µM
  TGI: 17 µM
MOLT-4 leukemia
  GI50: 2.9 µM
  TGI: 9.61 µM
NCI-H226 lung
  GI50: 7.82 µM
  TGI: 24.7 µM
NCI-H23 lung
  GI50: 11.2 µM
  TGI: 24.2 µM
NCI-H460 lung
  GI50: 4.09 µM
  TGI: 14.9 µM
NCI-H522 lung
  GI50: 11.2 µM
  TGI: 24.7 µM
NCI/ADR-RES ovarian
  GI50: 10.7 µM
  TGI: 23.7 µM
OVCAR-3 ovarian
  GI50: 2.04 µM
  TGI: 5.61 µM
OVCAR-4 ovarian
  GI50: 8.78 µM
  TGI: 23.1 µM
OVCAR-5 ovarian
  GI50: 12 µM
  TGI: 24.4 µM
OVCAR-8 ovarian
  GI50: 12.3 µM
  TGI: 30.6 µM
PC-3 prostate
  GI50: 4.15 µM
  TGI: 18.2 µM
RPMI-8226 leukemia
  GI50: 3 µM
  TGI: > 100 µM
RXF 393 renal
  GI50: 3.7 µM
  TGI: 16 µM
SF-268 CNS
  GI50: 7.71 µM
  TGI: 22.5 µM
SF-295 CNS
  GI50: 11.3 µM
  TGI: 23.5 µM
SF-539 CNS
  GI50: 10.7 µM
  TGI: 22.5 µM
SK-MEL-2 melanoma
  GI50: 9.45 µM
  TGI: 22.3 µM
SK-MEL-28 melanoma
  GI50: 10.4 µM
  TGI: 22.2 µM
SK-MEL-5 melanoma
  GI50: 10.4 µM
  TGI: 22.2 µM
SK-OV-3 ovarian
  GI50: 13.7 µM
  TGI: 27.8 µM
SN12C renal
  GI50: 6.36 µM
  TGI: 19.9 µM
SNB-19 CNS
  GI50: 12 µM
  TGI: 24.3 µM
SNB-75 CNS
  GI50: 8.41 µM
  TGI: 22.7 µM
SW-620 colon
  GI50: 2.24 µM
  TGI: 5.06 µM
T-47D breast
  GI50: 5.16 µM
  TGI: 19.6 µM
TK-10 renal
  GI50: 17.4 µM
  TGI: 32 µM
U251 CNS
  GI50: 3.42 µM
  TGI: 13 µM
UACC-257 melanoma
  GI50: 11 µM
  TGI: 25 µM
UACC-62 melanoma
  GI50: 6.24 µM
  TGI: 19.4 µM
UO-31 renal
  GI50: 6.41 µM
  TGI: 19.9 µM
